# Assay results taken from ChEMBL document CHEMBL4196087 (Eur J Med Chem, 2018).
# Key:
# Type in all cases: functional
# Bacillus subtilis [1] = experiment: Antibacterial activity against Bacillus subtilis at 37 degC measured after 24 hrs by agar disc diffusion method
# Bacillus subtilis [2] = experiment: Antibacterial activity against Bacillus subtilis at 37 degC measured after 24 hrs by CLSI M7-A4 protocol based method
# Escherichia coli = experiment: Antibacterial activity against Escherichia coli at 37 degC measured after 24 hrs by agar disc diffusion method
# Pseudomonas aeruginosa [3] = experiment: Antibacterial activity against Pseudomonas aeruginosa at 37 degC measured after 24 hrs by agar disc diffusion method
# Pseudomonas aeruginosa [4] = experiment: Antibacterial activity against Pseudomonas aeruginosa at 37 degC measured after 24 hrs by CLSI M7-A4 protocol based method
# Staphylococcus aureus = experiment: Antibacterial activity against Staphylococcus aureus at 37 degC measured after 24 hrs by agar disc diffusion method
# NCI-H226 = experiment: Growth inhibition of human NCI-H226 cells at 10^-5 M incubated for 48 hrs by sulforhodamine B assay relative to control; settings: NCI-H226, 48 h, read-out: GI
# MCF7 = experiment: Growth inhibition of human MCF7 cells at 10^-5 M incubated for 48 hrs by sulforhodamine B assay relative to control; settings: MCF7, 48 h, read-out: GI
# HOP-92 = experiment: Growth inhibition of human HOP92 cells at 10^-5 M incubated for 48 hrs by sulforhodamine B assay relative to control; settings: HOP-92, 48 h, read-out: GI
# SF-539 = experiment: Growth inhibition of human SF539 cells at 10^-5 M incubated for 48 hrs by sulforhodamine B assay relative to control; settings: SF-539, 48 h, read-out: GI
# HOP-62 = experiment: Growth inhibition of human HOP62 cells at 10^-5 M incubated for 48 hrs by sulforhodamine B assay relative to control; settings: HOP-62, 48 h, read-out: GI
# LOX IMVI = experiment: Growth inhibition of human LOXIMVI cells at 10^-5 M incubated for 48 hrs by sulforhodamine B assay relative to control; settings: read-out: GI
# MDA-MB-231 = experiment: Growth inhibition of human MDA-MB-231 cells at 10^-5 M incubated for 48 hrs by sulforhodamine B assay relative to control; settings: MDA-MB-231, 48 h, read-out: GI
# K562 = experiment: Growth inhibition of human K562 cells at 10^-5 M incubated for 48 hrs by sulforhodamine B assay relative to control; settings: K562, 48 h, read-out: GI
# MOLT-4 = experiment: Growth inhibition of human MOLT4 cells at 10^-5 M incubated for 48 hrs by sulforhodamine B assay relative to control; settings: MOLT-4, 48 h, read-out: GI
# IGROV-1 = experiment: Growth inhibition of human IGROV1 cells at 10^-5 M incubated for 48 hrs by sulforhodamine B assay relative to control; settings: IGROV-1, 48 h, read-out: GI
# MDA-MB-468 = experiment: Growth inhibition of human MDA-MB-468 cells at 10^-5 M incubated for 48 hrs by sulforhodamine B assay relative to control; settings: MDA-MB-468, 48 h, read-out: GI
# PC-3 = experiment: Growth inhibition of human PC3 cells at 10^-5 M incubated for 48 hrs by sulforhodamine B assay relative to control; settings: PC-3, 48 h, read-out: GI
# UO-31 = experiment: Growth inhibition of human UO31 cells at 10^-5 M incubated for 48 hrs by sulforhodamine B assay relative to control; settings: UO-31, 48 h, read-out: GI
# RPMI-8226 = experiment: Growth inhibition of human RPMI8226 cells at 10^-5 M incubated for 48 hrs by sulforhodamine B assay relative to control; settings: RPMI-8226, 48 h, read-out: GI
# A498 = experiment: Growth inhibition of human A498 cells at 10^-5 M incubated for 48 hrs by sulforhodamine B assay relative to control; settings: A498, 48 h, read-out: GI
# HL-60(TB) = experiment: Growth inhibition of human HL-60(TB) cells at 10^-5 M incubated for 48 hrs by sulforhodamine B assay relative to control; settings: HL-60, 48 h, read-out: GI
# SK-MEL-5 = experiment: Growth inhibition of human SK-MEL-5 cells at 10^-5 M incubated for 48 hrs by sulforhodamine B assay relative to control; settings: SK-MEL-5, 48 h, read-out: GI
# CCRF-CEM = experiment: Growth inhibition of human CCRF-CEM cells at 10^-5 M incubated for 48 hrs by sulforhodamine B assay relative to control; settings: read-out: GI
# T47D = experiment: Growth inhibition of human T47D cells at 10^-5 M incubated for 48 hrs by sulforhodamine B assay relative to control; settings: read-out: GI
# SNB-75 = experiment: Growth inhibition of human SNB75 cells at 10^-5 M incubated for 48 hrs by sulforhodamine B assay relative to control; settings: SNB-75, 48 h, read-out: GI
# SK-OV-3 = experiment: Growth inhibition of human SKOV3 cells at 10^-5 M incubated for 48 hrs by sulforhodamine B assay relative to control; settings: SK-OV-3, 48 h, read-out: GI
Compound,diameter of the inhibition zone (DIZ) (Bacillus subtilis [1]),MIC (Bacillus subtilis [2]),diameter of the inhibition zone (DIZ) (Escherichia coli),diameter of the inhibition zone (DIZ) (Pseudomonas aeruginosa [3]),MIC (Pseudomonas aeruginosa [4]),diameter of the inhibition zone (DIZ) (Staphylococcus aureus),inhibition of growth at 10 µM (HOP-92),inhibition of growth at 10 µM (HOP-62),inhibition of growth at 10 µM (LOX IMVI),inhibition of growth at 10 µM (MOLT-4),inhibition of growth at 10 µM (PC-3),inhibition of growth at 10 µM (UO-31),inhibition of growth at 10 µM (T47D),also measured
O=C(CN1CCN(c2cc3c(cc2F)c(=O)c(C(=O)O)cn3C2CC2)CC1)N/N=C/c1ccco1,31 mm,70 µg/mL,28 mm,30 mm,66 µg/mL,26 mm,,,,,,,,
O=C(O)c1cn(C2CC2)c2cc(N3CCNCC3)c(F)cc2c1=O [CIPROFLOXACIN],38 mm,,33 mm,36 mm,,31 mm,,,,,,,,
COc1ccc(/C=N/NC(=O)CN2CCN(c3cc4c(cc3F)c(=O)c(C(=O)O)cn4C3CC3)CC2)cc1,26 mm,,24 mm,27 mm,,25 mm,< 20%,< 20%,23.2%,< 20%,< 20%,< 20%,< 20%,inhibition of growth at 10 µM (NCI-H226): < 20%; inhibition of growth at 10 µM (MCF7): < 20%; inhibition of growth at 10 µM (SF-539): < 20%; inhibition of growth at 10 µM (MDA-MB-231): < 20%; inhibition of growth at 10 µM (K562): < 20%; inhibition of growth at 10 µM (IGROV-1): < 20%; inhibition of growth at 10 µM (MDA-MB-468): < 20%; inhibition of growth at 10 µM (RPMI-8226): < 20%; inhibition of growth at 10 µM (A498): < 20%; inhibition of growth at 10 µM (HL-60(TB)): < 20%; inhibition of growth at 10 µM (SK-MEL-5): < 20%; inhibition of growth at 10 µM (CCRF-CEM): < 20%; inhibition of growth at 10 µM (SNB-75): < 20%
O=C(CN1CCN(c2cc3c(cc2F)c(=O)c(C(=O)O)cn3C2CC2)CC1)N/N=C/c1ccc(Cl)cc1,30 mm,62 µg/mL,28 mm,30 mm,60 µg/mL,28 mm,< 20%,< 20%,< 20%,< 20%,< 20%,< 20%,< 20%,inhibition of growth at 10 µM (NCI-H226): < 20%; inhibition of growth at 10 µM (MCF7): < 20%; inhibition of growth at 10 µM (SF-539): < 20%; inhibition of growth at 10 µM (MDA-MB-231): < 20%; inhibition of growth at 10 µM (K562): < 20%; inhibition of growth at 10 µM (IGROV-1): < 20%; inhibition of growth at 10 µM (MDA-MB-468): < 20%; inhibition of growth at 10 µM (RPMI-8226): < 20%; inhibition of growth at 10 µM (A498): 26.7%; inhibition of growth at 10 µM (HL-60(TB)): < 20%; inhibition of growth at 10 µM (SK-MEL-5): < 20%; inhibition of growth at 10 µM (CCRF-CEM): < 20%; inhibition of growth at 10 µM (SNB-75): < 20%
O=C(CN1CCN(c2cc3c(cc2F)c(=O)c(C(=O)O)cn3C2CC2)CC1)N/N=C/c1ccncc1,35 mm,62 µg/mL,28 mm,30 mm,44 µg/mL,30 mm,,,,,,,,
CSc1nnc(CN2CCN(c3cc4c(cc3F)c(=O)c(C(=O)O)cn4C3CC3)CC2)o1,,,,,,,< 20%,< 20%,< 20%,< 20%,24.9%,< 20%,21.1%,inhibition of growth at 10 µM (SK-OV-3): < 20%
COc1cc(/C=N/NC(=O)CN2CCN(c3cc4c(cc3F)c(=O)c(C(=O)O)cn4C3CC3)CC2)cc(OC)c1OC,23 mm,,20 mm,23 mm,,21 mm,,,,,,,,
O=C(CN1CCN(c2cc3c(cc2F)c(=O)c(C(=O)O)cn3C2CC2)CC1)N/N=C/c1cccnc1,32 mm,60 µg/mL,29 mm,31 mm,58 µg/mL,30 mm,,,,,,,,
NNC(=O)CN1CCN(c2cc3c(cc2F)c(=O)c(C(=O)O)cn3C2CC2)CC1,33 mm,,28 mm,30 mm,,28 mm,< 20%,< 20%,< 20%,< 20%,< 20%,< 20%,< 20%,inhibition of growth at 10 µM (NCI-H226): < 20%; inhibition of growth at 10 µM (MCF7): < 20%; inhibition of growth at 10 µM (SF-539): < 20%; inhibition of growth at 10 µM (MDA-MB-231): < 20%; inhibition of growth at 10 µM (K562): < 20%; inhibition of growth at 10 µM (IGROV-1): < 20%; inhibition of growth at 10 µM (MDA-MB-468): < 20%; inhibition of growth at 10 µM (RPMI-8226): < 20%; inhibition of growth at 10 µM (A498): < 20%; inhibition of growth at 10 µM (HL-60(TB)): 20.5%; inhibition of growth at 10 µM (SK-MEL-5): < 20%; inhibition of growth at 10 µM (CCRF-CEM): < 20%; inhibition of growth at 10 µM (SNB-75): < 20%
O=C(CN1CCN(c2cc3c(cc2F)c(=O)c(C(=O)O)cn3C2CC2)CC1)N/N=C/c1ccccc1Cl,22 mm,,19 mm,22 mm,,20 mm,,,,,,,,
O=C(CSc1nnc(CN2CCN(c3cc4c(cc3F)c(=O)c(C(=O)O)cn4C3CC3)CC2)o1)c1ccc(Cl)cc1,,,,,,,27.2%,23.5%,< 20%,< 20%,< 20%,< 20%,23%,inhibition of growth at 10 µM (SK-OV-3): 20.9%
O=C(CN1CCN(c2cc3c(cc2F)c(=O)c(C(=O)O)cn3C2CC2)CC1)N/N=C/c1ccccc1F,29 mm,,26 mm,29 mm,,26 mm,,,,,,,,
O=C(CN1CCN(c2cc3c(cc2F)c(=O)c(C(=O)O)cn3C2CC2)CC1)N/N=C/c1cccs1,28 mm,82 µg/mL,24 mm,26 mm,72 µg/mL,23 mm,< 20%,< 20%,27.7%,< 20%,< 20%,< 20%,< 20%,inhibition of growth at 10 µM (NCI-H226): < 20%; inhibition of growth at 10 µM (MCF7): < 20%; inhibition of growth at 10 µM (SF-539): < 20%; inhibition of growth at 10 µM (MDA-MB-231): < 20%; inhibition of growth at 10 µM (K562): < 20%; inhibition of growth at 10 µM (IGROV-1): < 20%; inhibition of growth at 10 µM (MDA-MB-468): < 20%; inhibition of growth at 10 µM (RPMI-8226): < 20%; inhibition of growth at 10 µM (A498): 23.1%; inhibition of growth at 10 µM (HL-60(TB)): < 20%; inhibition of growth at 10 µM (SK-MEL-5): < 20%; inhibition of growth at 10 µM (CCRF-CEM): < 20%; inhibition of growth at 10 µM (SNB-75): < 20%
O=C(CN1CCN(c2cc3c(cc2F)c(=O)c(C(=O)O)cn3C2CC2)CC1)N/N=C/c1ccc(F)cc1,19 mm,,17 mm,19 mm,,18 mm,,,,,,,,
COc1cc(/C=N/NC(=O)CN2CCN(c3cc4c(cc3F)c(=O)c(C(=O)O)cn4C3CC3)CC2)ccc1O,20 mm,,18 mm,18 mm,,16 mm,,,,,,,,
